The values that follow come from publication PMC10584170, “Machine learning-based phenotypic imaging to characterise the targetable biology of Plasmodium falciparum male gametocytes for the development of transmission-blocking antimalarials” (PLOS Pathogens, 2023).

SMILES strings stand for the structures. pIC50: −log10 of the molar value. Where two headings read alike, the source gives them in different places.

Data set [1] relates to P. falciparum male gametocytes. The experiment in a line: P. falciparum Dual Gamete Formation Assay (PfDGFA), male readout (exflagellation). It is filed as cell-based, Plasmodium falciparum NF54. The conditions noted are these: for Selectivity Ratio M: HepG2 Tox50 versus male IC50; for pIC50: PfDGFA, 24 h incubation with gametocytes before induction, exflagellation readout, read-out: Male IC50; for HitlevelM: number of replicates with >50% inhibition in the male readout. In short, it runs like this: (§1)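 Male and female gamete formation were quantified by microscopy image analysis following 24 h incubation of mature NF54 gametocytes with compound and activation at 28°C with xanthurenic acid.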

Data set [2] concerns P. falciparum female gametocytes. Nature of the data set: P. falciparum Dual Gamete Formation Assay (PfDGFA), female readout (Pfs25-positive female gametes). Format: cell-based, Plasmodium falciparum NF54. The conditions noted are these: for Selectivity ratio F: HepG2 Tox50 versus female IC50; for pIC50: PfDGFA, 24 h incubation with gametocytes before induction, female gamete readout, read-out: Female IC50; for HitlevelF: number of replicates with >50% inhibition in the female readout. The method, boiled down:
as §1

A further data set deals with HepG2 cells. The experiment in a line: HepG2 cytotoxicity counter-screen. The conditions noted are these: cytotoxic activity against HepG2 cells. A general note: The purpose of a counterscreen is to sort out artefacts and off-target activity.
The mark [3] stands for this setting: Plasmodium falciparum, PfDGFA at 2µM, 24h preincubation with gametocytes, average of replicates, read-out: Average inhibition male (%).
The mark [4] stands for this setting: Plasmodium falciparum, PfDGFA at 2µM, 24h preincubation with gametocytes, replicate R1, read-out: % inhibition male (individual replicates) R1.
Where [5] appears, read: Plasmodium falciparum, PfDGFA at 2µM, 24h preincubation with gametocytes, replicate R2, read-out: % inhibition male (individual replicates) R2.
[6] abbreviates: Plasmodium falciparum, PfDGFA at 2µM, 24h preincubation with gametocytes, replicate R3, read-out: % inhibition male (individual replicates) R3.
Where [7] appears, read: Plasmodium falciparum, PfDGFA at 2µM, 24h preincubation with gametocytes, replicate R4, read-out: % inhibition male (individual replicates) R4.
The mark [8] stands for this setting: Plasmodium falciparum, PfDGFA at 2µM, 24h preincubation with gametocytes, average of replicates, read-out: Average inhibition female (%).
[9] abbreviates: Plasmodium falciparum, PfDGFA at 2µM, 24h preincubation with gametocytes, replicate R1, read-out: % inhibition female (individual replicates) R1.
The mark [10] stands for this setting: Plasmodium falciparum, PfDGFA at 2µM, 24h preincubation with gametocytes, replicate R2, read-out: % inhibition female (individual replicates) R2.
[11] abbreviates: Plasmodium falciparum, PfDGFA at 2µM, 24h preincubation with gametocytes, replicate R3, read-out: % inhibition female (individual replicates) R3.
The mark [12] stands for this setting: Plasmodium falciparum, PfDGFA at 2µM, 24h preincubation with gametocytes, replicate R4, read-out: % inhibition female (individual replicates) R4.
[13] abbreviates: Plasmodium falciparum, 2µM, 24h preincubation with gametocytes, average of replicates, read-out: Average inhibition male (%).
[14] abbreviates: Plasmodium falciparum, 2µM, 24h preincubation with gametocytes, replicate R1, read-out: % inhibition male (individual replicates) R1.
[15] abbreviates: Plasmodium falciparum, 2µM, 24h preincubation with gametocytes, replicate R2, read-out: % inhibition male (individual replicates) R2.
Where [16] appears, read: Plasmodium falciparum, 2µM, 24h preincubation with gametocytes, replicate R3, read-out: % inhibition male (individual replicates) R3.
The mark [17] stands for this setting: Plasmodium falciparum, 2µM, 24h preincubation with gametocytes, replicate R4, read-out: % inhibition male (individual replicates) R4.
Setting [18] is: Plasmodium falciparum, 2µM, 24h preincubation with gametocytes, average of replicates, read-out: Average inhibition female (%).
Where [19] appears, read: Plasmodium falciparum, 2µM, 24h preincubation with gametocytes, replicate R1, read-out: % inhibition female (individual replicates) R1.
Setting [20] is: Plasmodium falciparum, 2µM, 24h preincubation with gametocytes, replicate R2, read-out: % inhibition female (individual replicates) R2.
Setting [21] is: Plasmodium falciparum, 2µM, 24h preincubation with gametocytes, replicate R3, read-out: % inhibition female (individual replicates) R3.
[22] abbreviates: Plasmodium falciparum, 2µM, 24h preincubation with gametocytes, replicate R4, read-out: % inhibition female (individual replicates) R4.
Where [23] appears, read: PfDGFA at 2µM, 24h preincubation with gametocytes, average of replicates.
Where [24] appears, read: PfDGFA at 2µM, 24h preincubation with gametocytes, replicate R1.
[25] abbreviates: PfDGFA at 2µM, 24h preincubation with gametocytes, replicate R3.
Where [26] appears, read: PfDGFA at 2µM, 24h preincubation with gametocytes, replicate R4.

With `COc1ccc(C[C@H](N)C(=O)N[C@H]2[C@@H](O)[C@H](n3cnc4c(N(C)C)ncnc43)O[C@@H]2CO)cc1` [TCMDC-123493], the “Selectivity Ratio M” value in data set [1] was determined as 3.72. Further, the inhibition (usually the drop in the measured response relative to a control, in per cent) at 2 µM in data set [1] (setting [3]) turned out to be 76.8%; in data set [1] (setting [4]), 75.8%; in data set [1] (setting [5]), 91.9%; in data set [1] (setting [6]), 54%; in data set [1] (setting [7]) it was 85.6%; in data set [2] (setting [8]), 37.8%. Also, the inhibition at 2 µM was 41.5% in data set [2] (setting [9]), 55% in data set [2] (setting [10]), 20.7% in data set [2] (setting [11]) and 33.9% in data set [2] (setting [12]). The values for the pIC50 in data set [1] (Plasmodium falciparum) and in data set [2] (Plasmodium falciparum) were 6.04 and 5.29, respectively. Besides, the HitlevelM in data set [1] (2µM) is 4. Moreover, in data set [2], the “Selectivity ratio F” value worked out at 0.66. For the same compound, the HitlevelF in data set [2] (2µM) turned out to be 1. Moreover, the Tox50 in the data set with HepG2 cells is on record as 3.39 µM.
In the case of `CN(C)CCCn1c(N)c(-c2nc3ccccc3[nH]2)c2nc(C#N)c(C#N)nc21` [TCMDC-123729], the “Selectivity Ratio M” value in data set [1] amounted to 16. For the same compound, the inhibition at 2 µM is 100% in data set [1] (setting [13]); 96.8% in data set [1] (setting [14]); 102% in data set [1] (setting [15]); 97.3% in data set [1] (setting [16]); 104% in data set [1] (setting [17]); 94.8% in data set [2] (setting [18]). Also, the inhibition at 2 µM in data set [2] (setting [19]) is 95.1%; in data set [2] (setting [20]), 89.6%; in data set [2] (setting [21]), 99.5%; in data set [2] (setting [22]), 95.1%. Also, the pIC50 – broadly, −log10 of the IC50, conventionally taken in molar units – in data set [1] (Plasmodium falciparum) is 6.29; in data set [2] (Plasmodium falciparum) it was 5.83. For the same compound, the “Selectivity ratio F” value in data set [2] is listed as 5.55. This compound also gave a Tox50 in the data set with HepG2 cells of 8.13 µM.
Consider `C=CCNc1cc(-c2ccccn2)nc(-c2ccccn2)n1` [TCMDC-123787], for which the “Selectivity Ratio M” value in data set [1] came to 13.76. In addition, the inhibition at 2 µM amounted to 94.8% in data set [1] (setting [13]); 93.1% in data set [1] (setting [14]); 94.1% in data set [1] (setting [15]); 97.8% in data set [1] (setting [16]); 94.1% in data set [1] (setting [17]); 33.1% in data set [2] (setting [18]). In addition, the inhibition at 2 µM in data set [2] (setting [19]) stood at 29.8%; in data set [2] (setting [20]), 30%; in data set [2] (setting [21]), 14.9%; in data set [2] (setting [22]), 57.6%. The figures for the negative-log IC50 (pIC50) in data set [1] (Plasmodium falciparum) and in data set [2] (Plasmodium falciparum) were 6.04 and 5.31, respectively. Besides, the “Selectivity ratio F” value in data set [2] turned out to be 2.57. Besides, the Tox50 with HepG2 cells turned out to be 12.58 µM.
In data set [1] (2µM, 24h preincubation), `CN1CCN(c2ccc(Nc3c4ccccc4nc4ccccc34)cc2)CC1` [TCMDC-123912] registered a HitlevelM of 3. The “Selectivity Ratio M” value in data set [1] was 45.1. For the same compound, the inhibition at 2 µM in data set [1] (Plasmodium falciparum, 2µM, 24h preincubation with gametocytes prior to induction of gametogenesis, average of replicates, read-out: Average inhibition male (%)) was determined as 62.8%; in data set [1] (Plasmodium falciparum, 2µM, 24h preincubation with gametocytes prior to induction of gametogenesis, replicate R1, read-out: % inhibition male (individual replicates) R1), 83%; in data set [1] (Plasmodium falciparum, 2µM, 24h preincubation with gametocytes prior to induction of gametogenesis, replicate R2, read-out: % inhibition male (individual replicates) R2) it was 83.6%; in data set [1] (Plasmodium falciparum, 2µM, 24h preincubation with gametocytes prior to induction of gametogenesis, replicate R3, read-out: % inhibition male (individual replicates) R3) it was 12.9%; in data set [1] (Plasmodium falciparum, 2µM, 24h preincubation with gametocytes prior to induction of gametogenesis, replicate R4, read-out: % inhibition male (individual replicates) R4) it was 71.6%; in data set [2] (Plasmodium falciparum, 2µM, 24h preincubation with gametocytes prior to induction of gametogenesis, average of replicates, read-out: Average inhibition female (%)), 9.1%. The inhibition at 2 µM in data set [2] (Plasmodium falciparum, 2µM, 24h preincubation with gametocytes prior to induction of gametogenesis, replicate R1, read-out: % inhibition female (individual replicates) R1) came out at 23.8%; in data set [2] (Plasmodium falciparum, 2µM, 24h preincubation with gametocytes prior to induction of gametogenesis, replicate R2, read-out: % inhibition female (individual replicates) R2), 8%; in data set [2] (Plasmodium falciparum, 2µM, 24h preincubation with gametocytes prior to induction of gametogenesis, replicate R3, read-out: % inhibition female (individual replicates) R3), 0.7%; in data set [2] (Plasmodium falciparum, 2µM, 24h preincubation with gametocytes prior to induction of gametogenesis, replicate R4, read-out: % inhibition female (individual replicates) R4), 4.1%. In addition, the pIC50 in data set [1] (Plasmodium falciparum) is 6.23; in data set [2] (Plasmodium falciparum), 5.05. The compound further gave a HitlevelF in data set [2] (2µM, 24h preincubation) of 0. Further, the “Selectivity ratio F” value in data set [2] is recorded as 3.01. Moreover, the Tox50 with HepG2 cells amounted to 26.65 µM.
In the case of `COc1ccc(C[C@H](N)C(=O)N[C@H]2[C@@H](O)[C@H](n3cnc4c(N(C)C)ncnc43)O[C@@H]2CO)cc1.Cl` [TCMDC-123927], in data set [1], the “Selectivity Ratio M” value came out at 4.87 and the pIC50 is 6.39. Further, the “Average inhibition male (%)” value in data set [1] (setting [23]) was determined as 79.6%. Further, the “% inhibition male (individual replicates) R1” value in data set [1] (setting [24]) amounted to 87.8%. In addition, the “% inhibition male (individual replicates) R3” value in data set [1] (setting [25]) is 64.7%. Besides, the “% inhibition male (individual replicates) R4” value in data set [1] (setting [26]) was determined as 82.2%. In addition, the HitlevelM in data set [1] (2µM) was 4. In addition, in data set [2], the “Selectivity ratio F” value is on record as 0.5 and the pIC50 is 5.40. The “Average inhibition female (%)” value in data set [2] (setting [23]) came out at 38.8%. In addition, the “% inhibition female (individual replicates) R1” value in data set [2] (setting [24]) is 27.9%. Also, the “% inhibition female (individual replicates) R3” value in data set [2] (setting [25]) came to 10.7%. In addition, in data set [2] (setting [26]), the “% inhibition female (individual replicates) R4” value came to 72.0%. In data set [2] (2µM), this compound gave a HitlevelF of 1. Further, the Tox50 with HepG2 cells is listed as 2.01 µM.
For `CCc1cc2c(Sc3nnc(N)s3)ncnc2s1` [TCMDC-123993], the “Selectivity Ratio M” value in data set [1] worked out at 62.08. In addition, the inhibition at 2 µM was 88.1% in data set [1] (setting [3]); 91.2% in data set [1] (setting [4]); 88.6% in data set [1] (setting [5]); 87.9% in data set [1] (setting [6]); 84.9% in data set [1] (setting [7]); 62.7% in data set [2] (setting [8]). Further, the inhibition at 2 µM amounted to 49.4% in data set [2] (setting [9]), 83% in data set [2] (setting [10]), 66.2% in data set [2] (setting [11]) and 52.3% in data set [2] (setting [12]). Also, the negative-log IC50 (pIC50) was 6.01 in data set [1] (Plasmodium falciparum) and 6.13 in data set [2] (Plasmodium falciparum). This compound also registered a HitlevelM in data set [1] (2µM) of 4. In addition, the “Selectivity ratio F” value in data set [2] was found to be 82.32. This compound registered a HitlevelF in data set [2] (2µM) of 3. Besides, the Tox50 with HepG2 cells was 61 µM.
As for `[O-][s+]1c(Cl)c(-c2ccc(Cl)cc2)c2ccc(Cl)cc21` (stereo not drawn) [TCMDC-124011], in data set [1], the “Selectivity Ratio M” value was determined as 123.92. The inhibition at 2 µM in data set [1] (setting [13]) was found to be 99.1%; in data set [1] (setting [14]), 99.4%; in data set [1] (setting [15]) it was 99.6%; in data set [1] (setting [16]) it was 98.6%; in data set [1] (setting [17]) it was 98.9%; in data set [2] (setting [18]), 46.7%. In addition, the inhibition at 2 µM in data set [2] (setting [19]) was determined as 29.4%; in data set [2] (setting [20]), 65.7%; in data set [2] (setting [21]), 37%; in data set [2] (setting [22]), 54.7%. In addition, the negative-log IC50 (pIC50) in data set [1] (Plasmodium falciparum) and in data set [2] (Plasmodium falciparum) was 6.85 throughout. Also, the “Selectivity ratio F” value in data set [2] came out at 125.38. The compound also showed a Tox50 in the data set on HepG2 cells of 17.6 µM.
